Experimental data reported in US20240270741A1 (Cogent Biosciences, Inc., priority 2023, published 2024).

Biological target: FGFR2 (Homo sapiens, UniProt P21802)
Assay: FGFR wild type enzyme assay (HTRF KinEASE-TK), FGFR2
Conditions: Enz FGFR2 (nM), FGFR2 wild type enzyme assay

Chain of FGFR2 (P21802 399-821 limits assumed): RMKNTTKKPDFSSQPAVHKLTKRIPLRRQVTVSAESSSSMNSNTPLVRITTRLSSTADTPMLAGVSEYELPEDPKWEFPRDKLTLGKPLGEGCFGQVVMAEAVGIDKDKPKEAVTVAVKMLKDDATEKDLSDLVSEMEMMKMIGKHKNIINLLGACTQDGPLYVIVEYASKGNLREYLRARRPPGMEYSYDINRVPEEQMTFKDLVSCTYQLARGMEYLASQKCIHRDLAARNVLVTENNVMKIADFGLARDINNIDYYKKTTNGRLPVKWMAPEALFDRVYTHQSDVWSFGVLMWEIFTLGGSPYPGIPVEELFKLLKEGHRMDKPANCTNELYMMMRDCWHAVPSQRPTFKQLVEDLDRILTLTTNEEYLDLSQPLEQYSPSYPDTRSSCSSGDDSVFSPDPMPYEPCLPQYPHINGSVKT

In order of rising IC50:
1. N#Cc1ccccc1Sc1cc(-c2cnn(C3CCS(=O)(=O)CC3)c2)cn2ncc(C#N)c12 [Example 367, 4-((2-cyanophenyl)thio)-6-(1-(1,1-dioxidotetrahydro-2H-thiopyran-4-yl)-1H-pyrazol-4-yl)pyrazolo[1,5-a]pyridine-3-carbonitrile]  0.4 nM
2. CC(=O)N[C@@H]1CC[C@@H](n2cc(-c3cc(Sc4ccccc4C#N)c4c(C#N)cnn4c3)cn2)C1 [Example 368, N-((1R,3R)-3-(4-(3-cyano-4-((2-cyanophenyl)thio)pyrazolo [1,5-a]pyridin-6-yl)-1H-pyrazol-1-yl)cyclopentyl)acetamide]  0.4 nM
3. Cc1c(-c2cc(Sc3ccc(F)cc3C#N)c3c(C#N)cnn3c2)cnn1[C@@H]1C[C@H]2CC[C@@H](C1)N2 [Example 366, 6-(1-((1R,3s,5S)-8-azabicyclo[3.2.1]octan-3-yl)-5-methyl-1H-pyrazol-4-yl)-4-((2-cyano-4-fluorophenyl)thio)pyrazolo [1,5-a]pyridine-3-carbonitrile]  0.6 nM
4. Cn1ccc(Cn2cc(-c3cc(Sc4ccccc4C#N)c4c(C#N)cnn4c3)cn2)n1 [Example 375, 4-((2-cyanophenyl)thio)-6-(1-((1-methyl-1H-pyrazol-3-yl)methyl)-1H-pyrazol-4-yl)pyrazolo[1,5-a]pyridine-3-carbonitrile]  0.6 nM
5. Cc1c(-c2cc(Sc3ccc(F)cc3C#N)c3c(C#N)cnn3c2)cnn1[C@@H]1C[C@H]2CC[C@@H](C1)N2C(=O)CO [Example 372, 4-((2-cyano-4-fluorophenyl)thio)-6-(1-((1R,3s,5S)-8-(2-hydroxyacetyl)-8-azabicyclo[3.2.1]octan-3-yl)-5-methyl-1H-pyrazol-4-yl)pyrazolo[1,5-a]pyridine-3-carbonitrile]  1 nM
6. Cc1noc(Cn2cc(-c3cc(Sc4ccccc4C#N)c4c(C#N)cnn4c3)cn2)n1 [Example 374, 4-((2-cyanophenyl)thio)-6-(1-((3-methyl-1,2,4-oxadiazol-5-yl)methyl)-1H-pyrazol-4-yl)pyrazolo[1,5-a]pyridine-3-carbonitrile]  1 nM
7. COC(=O)N1[C@@H]2CC[C@H]1C[C@H](n1ncc(-c3cc(Sc4ccc(F)cc4C#N)c4c(C#N)cnn4c3)c1C)C2 [Example 365, methyl (1R,3s,5S)-3-(4-(3-cyano-4-((2-cyano-4-fluorophenyl)thio)pyrazolo [1,5-a]pyridin-6-yl)-5-methyl-1H-pyrazol-1-yl)-8-azabicyclo[3.2.1]octane-8-carboxylate]  2 nM
8. CC(=O)N1[C@@H]2CC[C@H]1C[C@H](n1ncc(-c3cc(Sc4ccc(F)cc4C#N)c4c(C#N)cnn4c3)c1C)C2 [Example 373, 6-(1-((1R,3s,5S)-8-acetyl-8-azabicyclo[3.2.1]octan-3-yl)-5-methyl-1H-pyrazol-4-yl)-4-((2-cyano-4-fluorophenyl)thio)pyrazolo [1,5-a]pyridine-3-carbonitrile]  2 nM
9. Cc1c(-c2cc(Sc3ccc(Cl)cc3C#N)c3c(C#N)cnn3c2)cnn1C1CCN(C)CC1 [Example 369, 4-((4-chloro-2-cyanophenyl)thio)-6-(5-methyl-1-(1-methylpiperidin-4-yl)-1H-pyrazol-4-yl)pyrazolo[1,5-a]pyridine-3-carbonitrile]  5 nM
10. Cc1cc(Sc2cc(-c3cnn(C4CCN(C)CC4)c3C)cn3ncc(C#N)c23)c(C#N)cc1F [Example 371, 4-((2-cyano-4-fluoro-5-methylphenyl)thio)-6-(5-methyl-1-(1-methylpiperidin-4-yl)-1H-pyrazol-4-yl)pyrazolo[1,5-a]pyridine-3-carbonitrile]  5 nM
11. CN1CCC(n2ncc(-c3cc(Sc4ncccc4F)c4c(C#N)cnn4c3)c2C#N)CC1 [Example 370, 6-(5-cyano-1-(1-methylpiperidin-4-yl)-1H-pyrazol-4-yl)-4-((3-fluoropyridin-2-yl)thio)pyrazolo[1,5-a]pyridine-3-carbonitrile]  35 nM
